Experimental data from US10485794B2, “Treatment method by combined use of MDM2 inhibitor and BTK inhibitor” (DAIICHI SANKYO COMPANY, LIMITED, priority 2015, dated 2019).

Key:
[1] = tested on: ABC-type DLBCL cell line TMD-8 cells; test: In vivo effect on subcutaneously transplanted TMD-8 tumor in mice (Test Example 1); set-up: species or system NOD-SCID mouse; settings: for TGI (%): 29 days after tumor inoculation
Procedure: ABC-type DLBCL cell line TMD-8 cells were suspended to 1×10^8 cells/mL using phosphate-buffered saline. 0.1 mL of the prepared cell suspension was subcutaneously transplanted to each NOD-SCID mouse (female, 6 weeks old). […] The major axis (mm) and minor axis (mm) of tumor were measured over time using an electronic digital caliper. […] Also, the body weights were measured over time using an automatic balance for small animals, and body weight change % was calculated according to calculation formula (5) shown below to study the influence of drug administration on the body weights. In addition, the results of the last body weight measurement were used in dose calculation. […] A: Average tumor volume of the compound-administered group on the date of assessment (*) B: Average tumor volume of the untreated control group on the date of assessment (*) *: The tumor volume was calculated according to ½×[Major axis of tumor]×[Minor axis of tumor]×[Minor axis of tumor].

[2] = Body weight change of TMD-8 tumor-bearing mice (Test Example 1); type: in vivo, NOD-SCID mouse
Procedure: ABC-type DLBCL cell line TMD-8 cells were suspended to 1×10^8 cells/mL using phosphate-buffered saline. 0.1 mL of the prepared cell suspension was subcutaneously transplanted to each NOD-SCID mouse (female, 6 weeks old). […] For a combined use group, 25 mg/kg or 50 mg/kg Compound A and 100 mg/kg or 200 mg/kg ibrutinib were orally administered sequentially by forced administration. […] The major axis (mm) and minor axis (mm) of tumor were measured over time using an electronic digital caliper. […] Also, the body weights were measured over time using an automatic balance for small animals, and body weight change % was calculated according to calculation formula (5) shown below to study the influence of drug administration on the body weights. In addition, the results of the last body weight measurement were used in dose calculation. […] *: The tumor volume was calculated according to ½×[Major axis of tumor]×[Minor axis of tumor]×[Minor axis of tumor]. […] BWn: Body weight on day n BWs: Body weight on the start day of administration

[3] = Compound A 25 mg/kg oral, day 18 after tumor inoculation (first administration)
[4] = Compound A 25 mg/kg oral, day 20 after tumor inoculation
[5] = Compound A 25 mg/kg oral, day 22 after tumor inoculation
[6] = Compound A 25 mg/kg oral, day 25 after tumor inoculation
[7] = Compound A 25 mg/kg oral, day 27 after tumor inoculation
[8] = Compound A 25 mg/kg oral, day 29 after tumor inoculation
[9] = Compound A 50 mg/kg oral, day 18 after tumor inoculation (first administration)
[10] = Compound A 50 mg/kg oral, day 20 after tumor inoculation
[11] = Compound A 50 mg/kg oral, day 22 after tumor inoculation
[12] = Compound A 50 mg/kg oral, day 25 after tumor inoculation
[13] = Compound A 50 mg/kg oral, day 27 after tumor inoculation
[14] = Compound A 50 mg/kg oral, day 29 after tumor inoculation
[15] = Ibrutinib 100 mg/kg oral, day 18 after tumor inoculation (first administration)
[16] = Ibrutinib 100 mg/kg oral, day 20 after tumor inoculation
[17] = Ibrutinib 100 mg/kg oral, day 22 after tumor inoculation
[18] = Ibrutinib 100 mg/kg oral, day 25 after tumor inoculation
[19] = Ibrutinib 100 mg/kg oral, day 27 after tumor inoculation
[20] = Ibrutinib 100 mg/kg oral, day 29 after tumor inoculation
[21] = Ibrutinib 200 mg/kg oral, day 18 after tumor inoculation (first administration)
[22] = Ibrutinib 200 mg/kg oral, day 20 after tumor inoculation
[23] = Ibrutinib 200 mg/kg oral, day 22 after tumor inoculation
[24] = Ibrutinib 200 mg/kg oral, day 25 after tumor inoculation
[25] = Ibrutinib 200 mg/kg oral, day 27 after tumor inoculation
[26] = Ibrutinib 200 mg/kg oral, day 29 after tumor inoculation

CC1(C)CCC2(CC1)N[C@@H](C(=O)N[C@@H]1CC[C@@H](C(N)=O)OC1)[C@H](c1ccnc(Cl)c1F)[C@]21C(=O)Nc2cc(Cl)ccc21.Cc1ccc(S(=O)(=O)O)cc1 [Compound A, (3′R,4′S,5′R)—N-[(3R,6S)-6-carbamoyltetrahydro-2H-pyran-3-yl]-6″-chloro-4′-(2-chloro-3-fluoropyridin-4-yl)-4,4-dimethyl-2″-oxo-1″,2″-dihydrodispiro[cyclohexane-1,2′-pyrrolidine-3′,3″-indole]-5′-carboxamide p-toluenesulfonate]
TGI (%) ([1]; Compound A 25 mg/kg oral): 45% | Estimated tumor volume, average [1, 3]: 117 mm^3 | Estimated tumor volume, average [1, 4]: 135 mm^3 | Estimated tumor volume, average [1, 5]: 156 mm^3 | Estimated tumor volume, average [1, 6]: 201 mm^3 | Estimated tumor volume, average [1, 7]: 212 mm^3 | Estimated tumor volume, average [1, 8]: 282 mm^3 | TGI (%) ([1]; Compound A 50 mg/kg oral): 58% | Estimated tumor volume, average [1, 9]: 115 mm^3 | Estimated tumor volume, average [1, 10]: 118 mm^3 | Estimated tumor volume, average [1, 11]: 108 mm^3 | Estimated tumor volume, average [1, 12]: 143 mm^3 | Estimated tumor volume, average [1, 13]: 162 mm^3 | Estimated tumor volume, average [1, 14]: 216 mm^3 | Body weight change (%), average [2, 3]: 0.0% | Body weight change (%), average [2, 4]: 2.1% | Body weight change (%), average [2, 5]: 1.8% | Body weight change (%), average [2, 6]: 1.6% | Body weight change (%), average [2, 7]: 1.3% | Body weight change (%), average [2, 8]: 0.1% | Body weight change (%), average [2, 9]: 0.0% | Body weight change (%), average [2, 10]: −0.8% | Body weight change (%), average [2, 11]: −1.7% | Body weight change (%), average [2, 12]: −2.7% | Body weight change (%), average [2, 13]: −1.0% | Body weight change (%), average [2, 14]: −1.7%

C=CC(=O)N1CCC[C@@H](n2nc(-c3ccc(Oc4ccccc4)cc3)c3c(N)ncnc32)C1 [Ibrutinib, (R)-1-(3-(4-amino-3-(4-phenoxyphenyl)-1H-pyrazolo[3,4-d]pyrimidin-1-yl)piperidin-1-yl)prop-2-en-1-one]
TGI (%) ([1]; Ibrutinib 100 mg/kg oral): 58% | Estimated tumor volume, average [1, 15]: 115 mm^3 | Estimated tumor volume, average [1, 16]: 112 mm^3 | Estimated tumor volume, average [1, 17]: 127 mm^3 | Estimated tumor volume, average [1, 18]: 157 mm^3 | Estimated tumor volume, average [1, 19]: 185 mm^3 | Estimated tumor volume, average [1, 20]: 213 mm^3 | TGI (%) ([1]; Ibrutinib 200 mg/kg oral): 67% | Estimated tumor volume, average [1, 21]: 119 mm^3 | Estimated tumor volume, average [1, 22]: 120 mm^3 | Estimated tumor volume, average [1, 23]: 115 mm^3 | Estimated tumor volume, average [1, 24]: 149 mm^3 | Estimated tumor volume, average [1, 25]: 153 mm^3 | Estimated tumor volume, average [1, 26]: 166 mm^3 | Body weight change (%), average [2, 15]: 0.0% | Body weight change (%), average [2, 16]: −0.4% | Body weight change (%), average [2, 17]: −1.1% | Body weight change (%), average [2, 18]: −0.2% | Body weight change (%), average [2, 19]: 0.8% | Body weight change (%), average [2, 20]: −0.1% | Body weight change (%), average [2, 21]: 0.0% | Body weight change (%), average [2, 22]: −1.5% | Body weight change (%), average [2, 23]: −1.2% | Body weight change (%), average [2, 24]: 0.2% | Body weight change (%), average [2, 25]: −0.4% | Body weight change (%), average [2, 26]: −1.6%
